According to PMC7549094 (Journal of Medicinal Chemistry, 2020):
Read-outs that look alike come from different tables or passages of the source.

Columns and labels:
hERG = hERG (Homo sapiens, UniProt Q12809); experiment: receptor profile (Table S4)
rVMAT2 uptake = rVMAT2 uptake (Rattus norvegicus, UniProt Q01827); experiment: receptor profile (Table S4); type: biochemical
hr Nav1.5 = hr Nav1.5 (Homo sapiens, UniProt Q14524); experiment: receptor profile (Table S4); conditions: hr Nav1.5
Nav1.5 = Nav1.5 (Homo sapiens, UniProt Q14524); experiment: receptor profile (Table S4); conditions: human
Nav1.5, sequence (Q14524 whole entry): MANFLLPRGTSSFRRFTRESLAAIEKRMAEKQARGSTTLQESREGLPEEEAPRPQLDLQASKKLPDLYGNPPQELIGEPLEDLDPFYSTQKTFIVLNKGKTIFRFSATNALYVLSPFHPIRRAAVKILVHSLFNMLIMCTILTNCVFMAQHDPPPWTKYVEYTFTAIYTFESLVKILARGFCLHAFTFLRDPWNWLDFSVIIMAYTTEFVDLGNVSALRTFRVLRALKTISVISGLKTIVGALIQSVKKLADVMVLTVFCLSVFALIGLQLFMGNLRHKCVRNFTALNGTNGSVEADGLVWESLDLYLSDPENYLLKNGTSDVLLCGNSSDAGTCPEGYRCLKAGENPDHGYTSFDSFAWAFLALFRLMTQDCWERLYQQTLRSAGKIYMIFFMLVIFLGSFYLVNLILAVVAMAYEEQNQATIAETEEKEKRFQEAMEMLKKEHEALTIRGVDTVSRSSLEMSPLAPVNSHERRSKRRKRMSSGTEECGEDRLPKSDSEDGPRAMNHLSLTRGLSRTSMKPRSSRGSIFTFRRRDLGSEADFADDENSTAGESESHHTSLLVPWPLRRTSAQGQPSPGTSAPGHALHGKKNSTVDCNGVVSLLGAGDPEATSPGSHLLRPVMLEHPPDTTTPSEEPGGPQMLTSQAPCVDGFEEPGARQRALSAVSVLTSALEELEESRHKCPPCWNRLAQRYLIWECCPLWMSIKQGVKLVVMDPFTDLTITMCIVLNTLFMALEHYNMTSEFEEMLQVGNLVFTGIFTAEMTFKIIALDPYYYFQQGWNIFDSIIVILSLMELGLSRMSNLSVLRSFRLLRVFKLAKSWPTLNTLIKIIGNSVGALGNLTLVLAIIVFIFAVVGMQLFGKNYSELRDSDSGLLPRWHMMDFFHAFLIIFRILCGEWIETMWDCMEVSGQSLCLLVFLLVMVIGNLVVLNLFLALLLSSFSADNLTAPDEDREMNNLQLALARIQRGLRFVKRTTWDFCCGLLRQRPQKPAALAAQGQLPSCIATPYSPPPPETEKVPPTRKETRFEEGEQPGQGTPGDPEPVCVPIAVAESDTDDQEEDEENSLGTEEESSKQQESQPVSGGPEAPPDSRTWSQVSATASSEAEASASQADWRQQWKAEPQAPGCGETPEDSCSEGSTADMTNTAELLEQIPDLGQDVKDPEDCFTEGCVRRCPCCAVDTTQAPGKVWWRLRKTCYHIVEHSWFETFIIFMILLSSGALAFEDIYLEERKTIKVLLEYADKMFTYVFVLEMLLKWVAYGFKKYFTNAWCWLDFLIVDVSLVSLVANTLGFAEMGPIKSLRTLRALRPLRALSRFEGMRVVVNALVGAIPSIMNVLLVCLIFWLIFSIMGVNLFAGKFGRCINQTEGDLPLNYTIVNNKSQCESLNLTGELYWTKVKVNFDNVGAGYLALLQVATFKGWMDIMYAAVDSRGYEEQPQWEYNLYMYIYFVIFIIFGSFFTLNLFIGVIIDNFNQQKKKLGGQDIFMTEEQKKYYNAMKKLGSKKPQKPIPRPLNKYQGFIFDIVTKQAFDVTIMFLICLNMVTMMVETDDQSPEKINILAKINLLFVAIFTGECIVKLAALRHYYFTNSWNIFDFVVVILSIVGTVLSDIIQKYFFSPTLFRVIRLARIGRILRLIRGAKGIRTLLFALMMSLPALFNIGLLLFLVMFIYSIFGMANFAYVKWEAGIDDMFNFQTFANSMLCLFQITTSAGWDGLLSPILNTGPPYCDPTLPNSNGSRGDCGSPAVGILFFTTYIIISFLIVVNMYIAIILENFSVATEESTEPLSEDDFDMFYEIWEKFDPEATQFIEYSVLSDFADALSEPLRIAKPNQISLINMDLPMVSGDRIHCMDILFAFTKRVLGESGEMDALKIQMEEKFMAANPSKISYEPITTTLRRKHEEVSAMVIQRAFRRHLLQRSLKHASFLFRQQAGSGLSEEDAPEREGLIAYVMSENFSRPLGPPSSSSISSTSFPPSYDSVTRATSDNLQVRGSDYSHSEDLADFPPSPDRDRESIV

human CYP2D6 = human CYP2D6 (Homo sapiens, UniProt P10635); conditions: human recombinant CYP; 1 µM, 30 min
hr D1 ag = hr D1 ag (Homo sapiens, UniProt P21728); experiment: receptor profile (Table S4); type: biochemical
hr D1 ag, sequence (P21728 whole entry): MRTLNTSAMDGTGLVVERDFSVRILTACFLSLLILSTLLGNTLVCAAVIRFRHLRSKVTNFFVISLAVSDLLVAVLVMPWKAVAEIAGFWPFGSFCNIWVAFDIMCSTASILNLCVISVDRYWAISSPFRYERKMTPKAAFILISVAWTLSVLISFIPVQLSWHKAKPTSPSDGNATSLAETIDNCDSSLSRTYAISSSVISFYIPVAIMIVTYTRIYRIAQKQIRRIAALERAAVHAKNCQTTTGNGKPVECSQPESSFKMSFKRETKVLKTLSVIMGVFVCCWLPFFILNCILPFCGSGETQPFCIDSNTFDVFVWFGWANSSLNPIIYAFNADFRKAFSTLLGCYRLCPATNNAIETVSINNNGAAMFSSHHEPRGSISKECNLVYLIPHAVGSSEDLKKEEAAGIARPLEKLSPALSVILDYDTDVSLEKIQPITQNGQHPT

hr D2 = hr D2 (Homo sapiens, UniProt P14416); experiment: receptor profile (Table S4); type: binding
hr D2, sequence (P14416 whole entry): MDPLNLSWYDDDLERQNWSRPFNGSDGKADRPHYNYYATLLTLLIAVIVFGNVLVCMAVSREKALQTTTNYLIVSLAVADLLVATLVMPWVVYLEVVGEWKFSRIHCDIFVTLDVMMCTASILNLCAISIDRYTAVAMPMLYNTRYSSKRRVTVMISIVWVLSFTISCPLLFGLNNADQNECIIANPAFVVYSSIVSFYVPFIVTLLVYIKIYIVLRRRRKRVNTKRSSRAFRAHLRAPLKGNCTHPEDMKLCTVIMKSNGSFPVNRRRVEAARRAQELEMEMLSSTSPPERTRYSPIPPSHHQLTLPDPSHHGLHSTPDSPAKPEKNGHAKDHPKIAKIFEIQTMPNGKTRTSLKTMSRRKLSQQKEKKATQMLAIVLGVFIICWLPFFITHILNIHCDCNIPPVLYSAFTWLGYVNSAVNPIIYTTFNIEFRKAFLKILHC

hr OpD = hr OpD (Homo sapiens, UniProt P41143); experiment: receptor profile (Table S4); type: binding
hr OpD, sequence (P41143 whole entry): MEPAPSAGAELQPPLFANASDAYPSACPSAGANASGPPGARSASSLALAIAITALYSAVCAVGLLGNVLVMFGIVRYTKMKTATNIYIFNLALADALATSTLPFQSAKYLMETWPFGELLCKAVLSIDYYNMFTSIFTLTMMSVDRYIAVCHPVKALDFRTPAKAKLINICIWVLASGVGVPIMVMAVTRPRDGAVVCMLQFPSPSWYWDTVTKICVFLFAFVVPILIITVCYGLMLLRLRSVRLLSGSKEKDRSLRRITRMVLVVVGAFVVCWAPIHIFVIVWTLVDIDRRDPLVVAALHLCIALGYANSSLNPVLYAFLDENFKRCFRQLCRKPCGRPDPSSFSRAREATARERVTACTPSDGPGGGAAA

in vivo = conditions: male, dog, plasma
Method: In Vivo PK Studies in Mice.
The solution was filtered using a 0.45 m syringe filter before dosing. Two male Balb/c mice were administered 1 intravenously via the lateral tail
vein at 5 mg/kg with a dose volume of 2.0 mL/kg. 1 was also formulated in a suspension of 0.5%
methylcellulose with 0.5% Tween 80 (0.5% MC/0.5% Tw80) in water at 2.5 mg/mL. A group of mice
(n=3) were administered 1 orally via gavage at 20 mg/kg with a dose volume of 8.0 mL/kg.
The mouse blood samples were centrifuged to separate plasma and the plasma samples were frozen at -
In Vivo PK Studies in Rats.
Two male Wistar rats were administered
1 intravenously via the lateral tail vein at 3 mg/kg with a dose volume of 1.0 mL/kg. 1 was also formulated
in a suspension of 0.5% methylcellulose with 0.5% Tween 80 (0.5% MC/0.5% Tw80) in water at 2.0
mg/mL. The second group of rats (n=3) were administered 1 orally via gavage at 10 mg/kg in suspension
with a dose volume of 5.0 mL/kg. Six blood samples of 100 μL each were collected serially from each
animal via the saphenous vein up to 24 hours after dosing. The rat blood samples were centrifuged to
separate plasma and the plasma samples were frozen at -20°C until analysis.
In Vivo PK Studies in Dogs.
The solution was filtered using a 0.45 m syringe filter before dosing. Three male Beagle dogs were administered 1 intravenously via saphenous
vein at 0.3 mg/kg with a dose volume of 0.1 mL/kg. 1 was also formulated in a suspension of 0.5%
methylcellulose with 0.5% Tween 80 (0.5%MC/0.5% Tween 80) in water at 1.0 mg/mL. The second
group of male dogs (n=2) were administered 1- orally via gavage at 1.0 mg/kg with a dose volume of 1.0
mL/kg. Seven blood samples of 250 µL each were collected serially from each animal via the jugular vein
The dog blood samples were centrifuged to separate plasma and the plasma
samples were frozen at -20 °C until analysis.

hr Ad3 = target: T1, hr Ad3 (Homo sapiens, UniProt P0DMS8); experiment: receptor profile (Table S4); type: binding
T1 sequence (P0DMS8 1-318): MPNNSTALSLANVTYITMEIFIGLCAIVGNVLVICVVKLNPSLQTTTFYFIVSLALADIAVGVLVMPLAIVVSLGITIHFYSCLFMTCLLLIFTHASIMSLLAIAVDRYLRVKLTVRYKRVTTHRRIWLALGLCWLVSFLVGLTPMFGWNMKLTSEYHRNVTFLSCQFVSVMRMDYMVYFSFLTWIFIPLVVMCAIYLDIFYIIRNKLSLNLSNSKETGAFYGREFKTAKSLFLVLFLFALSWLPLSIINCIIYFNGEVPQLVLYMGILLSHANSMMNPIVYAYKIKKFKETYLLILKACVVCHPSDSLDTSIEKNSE

BSEP = BSEP (Homo sapiens, UniProt O95342); experiment: receptor profile (Table S4), first BSEP line
[1] = metabolite profile in human hepatocytes; type: in vitro ADME; conditions: 10 μM of 1 for 4 h, UV 250 nm, normalized to largest peak
hr 5-HT3 = target: T2, hr 5-HT3 (Homo sapiens, UniProt P46098); experiment: receptor profile (Table S4); type: binding
T2 sequence (P46098 24-478): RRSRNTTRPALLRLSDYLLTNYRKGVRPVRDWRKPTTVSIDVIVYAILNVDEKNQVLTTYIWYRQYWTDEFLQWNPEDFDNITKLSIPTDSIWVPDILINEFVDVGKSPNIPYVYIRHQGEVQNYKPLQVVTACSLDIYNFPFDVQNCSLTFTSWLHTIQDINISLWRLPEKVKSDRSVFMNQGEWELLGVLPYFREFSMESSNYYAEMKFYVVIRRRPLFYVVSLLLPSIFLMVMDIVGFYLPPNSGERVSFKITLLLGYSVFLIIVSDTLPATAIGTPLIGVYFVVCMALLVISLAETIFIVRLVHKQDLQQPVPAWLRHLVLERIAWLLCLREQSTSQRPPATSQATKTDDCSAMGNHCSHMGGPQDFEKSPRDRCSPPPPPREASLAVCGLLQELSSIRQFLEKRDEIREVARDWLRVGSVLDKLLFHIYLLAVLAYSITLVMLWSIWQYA

[2] = microsomal extraction ratio, 1 h incubation in microsomes
hr D1 antag = hr D1 antag (Homo sapiens, UniProt P21728); experiment: receptor profile (Table S4); type: biochemical
hr D1 antag, sequence (P21728 whole entry): as the sequence (P21728 whole entry) above

[3] = microsomal extraction ratio, 1 h incubation in microsomes; remark: listed apart in the source

hERG, sequence (Q12809 whole entry): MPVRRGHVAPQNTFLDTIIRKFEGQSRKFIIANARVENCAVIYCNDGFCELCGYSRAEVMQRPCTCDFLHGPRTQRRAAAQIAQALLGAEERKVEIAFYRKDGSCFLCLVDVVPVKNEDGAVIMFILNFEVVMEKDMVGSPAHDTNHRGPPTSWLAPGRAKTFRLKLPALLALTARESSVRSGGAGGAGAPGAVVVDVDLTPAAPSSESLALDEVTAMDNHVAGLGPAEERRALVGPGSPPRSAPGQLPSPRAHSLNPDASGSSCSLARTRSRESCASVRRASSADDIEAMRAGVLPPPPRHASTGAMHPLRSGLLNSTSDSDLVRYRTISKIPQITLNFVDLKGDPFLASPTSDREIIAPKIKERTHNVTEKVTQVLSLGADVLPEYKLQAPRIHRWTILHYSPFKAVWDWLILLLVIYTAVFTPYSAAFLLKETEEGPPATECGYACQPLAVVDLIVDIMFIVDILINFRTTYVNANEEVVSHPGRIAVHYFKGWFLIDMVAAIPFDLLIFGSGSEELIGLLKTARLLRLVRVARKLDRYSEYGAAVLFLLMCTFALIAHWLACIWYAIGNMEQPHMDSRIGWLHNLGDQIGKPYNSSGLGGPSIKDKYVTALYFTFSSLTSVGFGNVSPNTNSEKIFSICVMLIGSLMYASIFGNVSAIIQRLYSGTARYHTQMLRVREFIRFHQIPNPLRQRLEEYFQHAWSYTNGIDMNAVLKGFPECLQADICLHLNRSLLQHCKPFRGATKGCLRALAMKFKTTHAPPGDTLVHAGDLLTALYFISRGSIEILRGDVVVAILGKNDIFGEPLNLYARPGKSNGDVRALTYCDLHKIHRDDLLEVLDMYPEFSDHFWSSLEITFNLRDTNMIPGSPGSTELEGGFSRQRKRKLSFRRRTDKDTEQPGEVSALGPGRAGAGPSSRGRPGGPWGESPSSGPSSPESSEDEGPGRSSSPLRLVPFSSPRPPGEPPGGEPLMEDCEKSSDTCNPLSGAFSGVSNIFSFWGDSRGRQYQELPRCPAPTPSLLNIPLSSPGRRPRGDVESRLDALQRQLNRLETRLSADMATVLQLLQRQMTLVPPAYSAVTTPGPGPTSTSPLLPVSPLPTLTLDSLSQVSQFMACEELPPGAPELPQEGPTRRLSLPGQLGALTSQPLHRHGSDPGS
rVMAT2 uptake, sequence (Q01827 whole entry): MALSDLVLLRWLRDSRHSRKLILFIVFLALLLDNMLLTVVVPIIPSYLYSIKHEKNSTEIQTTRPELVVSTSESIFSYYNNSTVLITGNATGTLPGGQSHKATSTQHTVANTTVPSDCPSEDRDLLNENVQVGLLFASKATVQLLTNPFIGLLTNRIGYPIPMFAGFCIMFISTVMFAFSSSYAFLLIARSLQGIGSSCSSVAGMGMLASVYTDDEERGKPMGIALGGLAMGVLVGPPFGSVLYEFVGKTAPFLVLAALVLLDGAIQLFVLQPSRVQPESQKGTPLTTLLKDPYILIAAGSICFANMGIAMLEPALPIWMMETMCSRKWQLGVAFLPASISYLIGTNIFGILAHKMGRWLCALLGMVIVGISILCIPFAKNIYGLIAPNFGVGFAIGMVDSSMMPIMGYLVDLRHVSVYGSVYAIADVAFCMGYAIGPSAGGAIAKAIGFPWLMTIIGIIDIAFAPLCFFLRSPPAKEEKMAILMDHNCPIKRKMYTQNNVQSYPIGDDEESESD

Cc1nc(C)c(C(=O)Nc2ccc(F)c(-c3nc4ncc(-c5ncccc5C)cn4n3)c2)o1 [compound 1, N-(4-Fluoro-3-(6-(3-methylpyridin-2-yl)-[1,2,4]triazolo[1,5-a]pyrimidin-2-yl)phenyl)-2,4-dimethyloxazole-5-carboxamide]
EC50/IC50 (hERG; hERG): > 30 µM
inhibition at 10 µM (hERG; human): -36%
inhibition at 30 µM (hERG; human): -25%
EC50/IC50 (rVMAT2 uptake; rVMAT2 uptake): 3.9 µM
inhibition at 10 µM (rVMAT2 uptake; read-out: % inh/act @ 10 µM): 64%
inhibition at 30 µM (rVMAT2 uptake; read-out: % inh/act @ 30 µM): 78%
inhibition at 10 µM (rVMAT2 uptake; read-out: VMAT2 inhibition): 61%
EC50/IC50 (hr Nav1.5): > 50 µM
inhibition at 10 µM (Nav1.5): 8%
inhibition at 30 µM (Nav1.5): 3%
substrate of human CYP2D6 (human CYP2D6): not a substrate
EC50/IC50 (hr D1 ag; hr D1 ag): > 30 µM
inhibition at 10 µM (hr D1 ag; read-out: % inh/act @ 10 µM): 6%
inhibition at 30 µM (hr D1 ag; read-out: % inh/act @ 30 µM): 2%
EC50/IC50 (hr D2; hr D2): > 30 µM
inhibition at 10 µM (hr D2; read-out: % inh/act @ 10 µM): 7%
inhibition at 30 µM (hr D2; read-out: % inh/act @ 30 µM): 15%
% inh/act @ 10 µM (hr GABAA ag): -11%
% inh/act @ 30 µM (hr GABAA ag): -2%
EC50/IC50 (hr OpD; hr OpD): > 30 µM
inhibition at 10 µM (hr OpD; read-out: % inh/act @ 10 µM): 22%
inhibition at 30 µM (hr OpD; read-out: % inh/act @ 30 µM): 33%
bioavailability (in vivo; Beagle, po, 1 mg/kg): 44%
MRT (in vivo; beagle, iv, 0.3 mg/kg): 3.3 h
Vd (in vivo; beagle, iv, 0.3 mg/kg): 2.1 L/kg
clearance (in vivo; beagle, iv, 0.3 mg/kg): 11.6 mL/min/kg
half-life (in vivo; beagle, iv, 0.3 mg/kg): 3.8 h
EC50/IC50 (hr Ad3; hr Ad3): > 30 µM
inhibition at 10 µM (hr Ad3; read-out: % inh/act @ 10 µM): 8%
inhibition at 30 µM (hr Ad3; read-out: % inh/act @ 30 µM): 37%
inhibition at 10 µM (BSEP): 28%
inhibition at 30 µM (BSEP): 45%
abundance human [1]: +++ (+++ > 75%)
EC50/IC50 (hr 5-HT3; hr 5-HT3): > 30 µM
inhibition at 10 µM (hr 5-HT3; read-out: % inh/act @ 10 µM): 22%
inhibition at 30 µM (hr 5-HT3; read-out: % inh/act @ 30 µM): 19%
ER dog [2]: < 0.24
EC50/IC50 (hr D1 antag; hr D1 antag): > 30 µM
inhibition at 10 µM (hr D1 antag; read-out: % inh/act @ 10 µM): -11%
inhibition at 30 µM (hr D1 antag; read-out: % inh/act @ 30 µM): -5%
ER human [3]: 0.27
